The values that follow come from patent US6339045B1, “N-(unsubstituted or substituted)-4-substituted-6-(unsubstituted or substituted)phenoxy-2-pyridinecarboxamides or thiocarboxamides, processes for producing the same, and herbicides” (Kureha Kagaku Kogyo Kabushiki Kaisha, priority 1995, dated 2002).

Common to all, as to experiment: Herbicidal effect by foliage and soil treatment
Holding throughout (type): in vivo
Holding throughout (details): evaluated after 14 days

For assay [1], the system named is wild chamomile (Matricaria chamomilla). A digest of the protocol: (§1)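 Scores are ratings of growth versus untreated plants 14 days after treatment. Plants grown to cotyledonal–bifoliate stage in granular soil at 19 to 25° C received a foliage-and-soil spray of test solution containing Tween 20, applied at a set compound amount.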
The subject of assay [2] is sicklepod (Cassia obtusifolia). A digest of the protocol: as §1
Assay [3] concerns ivyleafspeedwell (Veronica hederaefolia). A digest of the protocol:
as §1

Assay [4] concerns redroot pigweed (Amaranthus retroflexus). In short, it runs like this:
as §1

In assay [5] the test system is field bindweed (Convolvulus arvensis). In short, it runs like this:
as §1

For assay [6], the system named is common chickweed (Stellaria media). In short, it runs like this: as §1
For assay [7], the system named is cleavers (Galium aparine). A digest of the protocol: as §1
The subject of assay [8] is velvetleaf (Abutilon theophrasti). A digest of the protocol:
as §1

The test system of assay [9] is kediock (Sinapis arvensis). In short, it runs like this: as §1
Assay [10] has as its system common blackjack (Bidens pilosa). A digest of the protocol:
as §1

Assay [11] deals with black nightshade (Solanum nigrum). A digest of the protocol: as §1

Take `COc1cc(Oc2cccc(SC(F)(F)F)c2)nc(C(=O)NC(C)C)c1` [Compound I-40, N-(i-propyl)-4-methoxy-6-{3-(trifluoromethylmercapto)phenoxy}-2-pyridine carboxamide]: in assay [1] (10 g ai/10a), the “herbicidal activity rating, MC (Matricaria chamomilla)” value (“herbicidal activity rating, MC” below) was 4 (percentage of weeds killed was not less than 60% and less than 80%). In addition, in [2] (10 g ai/10a), the “herbicidal activity rating, CO (Cassia obtusifolia)” value (“herbicidal activity rating, CO” below) was 5 (percentage of weeds killed was not less than 80%). The “herbicidal activity rating, VH (Veronica hederaefolia)” value (“herbicidal activity rating, VH” below) in [3] (10 g ai/10a) is 5 (percentage of weeds killed was not less than 80%). The “herbicidal activity rating, AR (Amaranthus retroflexus)” value (“herbicidal activity rating, AR” below) in assay [4] (10 g ai/10a) was 5 (percentage of weeds killed was not less than 80%). Besides, the “herbicidal activity rating, CA (Convolvulus arvensis)” value (“herbicidal activity rating, CA” below) in [5] (10 g ai/10a) was 5 (percentage of weeds killed was not less than 80%). The “herbicidal activity rating, SM (Stellaria media)” value (“herbicidal activity rating, SM” below) in assay [6] (10 g ai/10a) is 5 (percentage of weeds killed was not less than 80%). In assay [7] (10 g ai/10a), the “herbicidal activity rating, GA (Galium aparine)” value (“herbicidal activity rating, GA” below) was 5 (percentage of weeds killed was not less than 80%). In [8] (10 g ai/10a), the “herbicidal activity rating, AT (Abutilon theophrasti)” value is 5 (percentage of weeds killed was not less than 80%). Also, the “herbicidal activity rating, SA (Sinapis arvensis)” value (“herbicidal activity rating, SA” below) in assay [9] (10 g ai/10a) was 5 (percentage of weeds killed was not less than 80%). For the same compound, the “herbicidal activity rating, BP (Bidens pilosa)” value (“herbicidal activity rating, BP” below) in [10] (10 g ai/10a) was 4 (percentage of weeds killed was not less than 60% and less than 80%). In [11] (10 g ai/10a), the “herbicidal activity rating, SN (Solanum nigrum)” value (“herbicidal activity rating, SN” below) is 5 (percentage of weeds killed was not less than 80%).

`CONC(=O)c1cc(OC)cc(Oc2cccc(C(F)(F)F)c2)n1` [Compound I-97, N-methoxy-4-methoxy-6-{3-(trifluoromethyl)phenoxy}-2-pyridine carboxamide]: the “herbicidal activity rating, MC” value in assay [1] (10 g ai/10a) is 5 (percentage of weeds killed was not less than 80%). Moreover, the “herbicidal activity rating, CO” value in assay [2] (10 g ai/10a) was 5 (percentage of weeds killed was not less than 80%). The “herbicidal activity rating, VH” value in assay [3] (10 g ai/10a) is 5 (percentage of weeds killed was not less than 80%). Further, the “herbicidal activity rating, AR” value in assay [4] (10 g ai/10a) is given as 5 (percentage of weeds killed was not less than 80%). For the same compound, the “herbicidal activity rating, CA” value in [5] (10 g ai/10a) is 4 (percentage of weeds killed was not less than 60% and less than 80%). Also, in assay [6] (10 g ai/10a), the “herbicidal activity rating, SM” value is reported as 5 (percentage of weeds killed was not less than 80%). In addition, the “herbicidal activity rating, GA” value in [7] (10 g ai/10a) is reported as 5 (percentage of weeds killed was not less than 80%). Moreover, the “herbicidal activity rating, AT (Abutilon theophrasti)” value in [8] (10 g ai/10a) is reported as 5 (percentage of weeds killed was not less than 80%). Also, the “herbicidal activity rating, SA” value in [9] (10 g ai/10a) was 5 (percentage of weeds killed was not less than 80%). Moreover, in assay [10] (10 g ai/10a), the “herbicidal activity rating, BP” value is reported as 5 (percentage of weeds killed was not less than 80%). For the same compound, the “herbicidal activity rating, SN” value in assay [11] (10 g ai/10a) is 5 (percentage of weeds killed was not less than 80%).

Take `CCSCCNC(=O)c1cc(OC)cc(Oc2cccc(C(F)(F)F)c2)n1` [Compound I-67, N-{2-(ethylmercapto)ethyl}-4-methoxy-6-{3-(trifluoromethyl)phenoxy}-2-pyridine carboxamide]: in assay [1] (10 g ai/10a), the “herbicidal activity rating, MC” value was 3 (percentage of weeds killed was not less than 40% and less than 60%). Also, the “herbicidal activity rating, CO” value in assay [2] (10 g ai/10a) is listed as 5 (percentage of weeds killed was not less than 80%). The “herbicidal activity rating, VH” value in assay [3] (10 g ai/10a) is 5 (percentage of weeds killed was not less than 80%). In addition, the “herbicidal activity rating, AR” value in assay [4] (10 g ai/10a) was 5 (percentage of weeds killed was not less than 80%). Besides, in assay [5] (10 g ai/10a), the “herbicidal activity rating, CA” value is reported as 5 (percentage of weeds killed was not less than 80%). Besides, the “herbicidal activity rating, SM” value in assay [6] (10 g ai/10a) is 4 (percentage of weeds killed was not less than 60% and less than 80%). In assay [7] (10 g ai/10a), the “herbicidal activity rating, GA” value is reported as 5 (percentage of weeds killed was not less than 80%). Further, the “herbicidal activity rating, AT (Abutilon theophrasti)” value in assay [8] (10 g ai/10a) was 4 (percentage of weeds killed was not less than 60% and less than 80%). The “herbicidal activity rating, SA” value in assay [9] (10 g ai/10a) is recorded as 5 (percentage of weeds killed was not less than 80%). For the same compound, the “herbicidal activity rating, BP” value in assay [10] (10 g ai/10a) was 3 (percentage of weeds killed was not less than 40% and less than 60%). In addition, the “herbicidal activity rating, SN” value in assay [11] (10 g ai/10a) is 5 (percentage of weeds killed was not less than 80%).

Regarding `CC(C)NC(=O)c1cccc(Oc2cccc(C(F)(F)F)c2)n1` [control (a)], the “herbicidal activity rating, MC” value in [1] (10 g ai/10a), in assay [1] (25 g ai/10a) and in assay [1] (62.5 g ai/10a) was 1 (percentage of weeds killed was less than 20%) in each case. For the same compound, the “herbicidal activity rating, CO” value was 1 (percentage of weeds killed was less than 20%) in assay [2] (10 g ai/10a); 2 (percentage of weeds killed was not less than 20% and less than 40%) in assay [2] (25 g ai/10a); 3 (percentage of weeds killed was not less than 40% and less than 60%) in [2] (62.5 g ai/10a). Besides, the “herbicidal activity rating, VH” value in [3] (10 g ai/10a) was 3 (percentage of weeds killed was not less than 40% and less than 60%); in [3] (25 g ai/10a) it was 4 (percentage of weeds killed was not less than 60% and less than 80%); in assay [3] (62.5 g ai/10a), 5 (percentage of weeds killed was not less than 80%). In addition, the “herbicidal activity rating, AR” value was 3 (percentage of weeds killed was not less than 40% and less than 60%) in [4] (10 g ai/10a); 3 (percentage of weeds killed was not less than 40% and less than 60%) in assay [4] (25 g ai/10a); 4 (percentage of weeds killed was not less than 60% and less than 80%) in [4] (62.5 g ai/10a). The “herbicidal activity rating, CA” value in assay [5] (10 g ai/10a) is 2 (percentage of weeds killed was not less than 20% and less than 40%); in [5] (25 g ai/10a) it was 3 (percentage of weeds killed was not less than 40% and less than 60%); in assay [5] (62.5 g ai/10a), 3 (percentage of weeds killed was not less than 40% and less than 60%). The “herbicidal activity rating, SM” value in assay [6] (10 g ai/10a), in [6] (25 g ai/10a) and in [6] (62.5 g ai/10a) was 1 (percentage of weeds killed was less than 20%) in each case. Further, the “herbicidal activity rating, GA” value was 2 (percentage of weeds killed was not less than 20% and less than 40%) in assay [7] (10 g ai/10a); 3 (percentage of weeds killed was not less than 40% and less than 60%) in [7] (25 g ai/10a); 4 (percentage of weeds killed was not less than 60% and less than 80%) in assay [7] (62.5 g ai/10a). The “herbicidal activity rating, AT (Abutilon theophrasti)” value in [8] (10 g ai/10a) was 2 (percentage of weeds killed was not less than 20% and less than 40%); in [8] (25 g ai/10a), 3 (percentage of weeds killed was not less than 40% and less than 60%); in [8] (62.5 g ai/10a), 3 (percentage of weeds killed was not less than 40% and less than 60%). Besides, the “herbicidal activity rating, SA” value in assay [9] (10 g ai/10a) was 3 (percentage of weeds killed was not less than 40% and less than 60%); in assay [9] (25 g ai/10a) it was 4 (percentage of weeds killed was not less than 60% and less than 80%); in [9] (62.5 g ai/10a), 5 (percentage of weeds killed was not less than 80%). Further, the “herbicidal activity rating, BP” value in [10] (10 g ai/10a), in assay [10] (25 g ai/10a) and in assay [10] (62.5 g ai/10a) was 1 (percentage of weeds killed was less than 20%) throughout. Besides, the “herbicidal activity rating, SN” value in [11] (10 g ai/10a) was 4 (percentage of weeds killed was not less than 60% and less than 80%); in assay [11] (25 g ai/10a), 4 (percentage of weeds killed was not less than 60% and less than 80%); in assay [11] (62.5 g ai/10a), 5 (percentage of weeds killed was not less than 80%).

As for `COc1cc(Oc2cccc(C(F)(F)F)c2)nc(C(=O)NC(OC)C(F)(F)F)c1` (centres unmarked) [Compound I-88, N-(1-methoxy-2,2,2-trifluoroethyl)-4-methoxy-6-{3-(trifluoromethyl)phenoxy}-2-pyridine carboxamide], in assay [1] (10 g ai/10a), the “herbicidal activity rating, MC” value is 2 (percentage of weeds killed was not less than 20% and less than 40%). Also, the “herbicidal activity rating, CO” value in assay [2] (10 g ai/10a) was 5 (percentage of weeds killed was not less than 80%). The “herbicidal activity rating, VH” value in [3] (10 g ai/10a) is reported as 5 (percentage of weeds killed was not less than 80%). The “herbicidal activity rating, AR” value in assay [4] (10 g ai/10a) is 5 (percentage of weeds killed was not less than 80%). In addition, the “herbicidal activity rating, CA” value in assay [5] (10 g ai/10a) is listed as 5 (percentage of weeds killed was not less than 80%). Besides, the “herbicidal activity rating, SM” value in [6] (10 g ai/10a) was 5 (percentage of weeds killed was not less than 80%). Further, the “herbicidal activity rating, GA” value in assay [7] (10 g ai/10a) is 5 (percentage of weeds killed was not less than 80%). The “herbicidal activity rating, AT (Abutilon theophrasti)” value in assay [8] (10 g ai/10a) is listed as 5 (percentage of weeds killed was not less than 80%). In [9] (10 g ai/10a), the “herbicidal activity rating, SA” value is on record as 5 (percentage of weeds killed was not less than 80%). For the same compound, the “herbicidal activity rating, BP” value in assay [10] (10 g ai/10a) was 3 (percentage of weeds killed was not less than 40% and less than 60%). The “herbicidal activity rating, SN” value in assay [11] (10 g ai/10a) was 5 (percentage of weeds killed was not less than 80%).
